Species on record: Rattus norvegicus
Experiment: Open TG-GATES - Regimen: Daily Repeat
Assay type: toxicity, organism-based, Sprague-Dawley
Parameters: regimen Daily Repeat, gender Male, age 6 weeks
Conditions: in vivo, po, 60 mg/kg, route gavage, dose level High; for APTT / Bas / Eos / Fbg / Hb / Ht / Lym / MCH / MCHC / MCV / Mono / Neu / PT / Plat / RBC / Ret / WBC: tissue Blood
[1] = 72 h, tissue Plasma, time 3 day

Structure (SMILES): O=[N+]([O-])c1ccc(O)c([N+](=O)[O-])c1 [2,4-DINITROPHENOL]
- TERMINAL_BW (72 h, time 3 day): 245.9 g
- APTT (72 h, time 3 day): 15.9 s
- Bas (72 h, time 3 day): 0%
- Eos (72 h, time 3 day): 1%
- Fbg (72 h, time 3 day): 275.4 mg/dL
- Hb (72 h, time 3 day): 13.3 g/dL
- Ht (72 h, time 3 day): 39.2%
- Lym (72 h, time 3 day): 74%
- MCH (72 h, time 3 day): 22 pg
- MCHC (72 h, time 3 day): 33.9%
- MCV (72 h, time 3 day): 64.9 fL
- Mono (72 h, time 3 day): 7%
- Neu (72 h, time 3 day): 18.4%
- PT (72 h, time 3 day): 11.7 s
- Plat (72 h, time 3 day): 139 x10_4/uL
- RBC (72 h, time 3 day): 604.8 x10_4/ul
- Ret (72 h, time 3 day): 9.7%
- WBC (72 h, time 3 day): 124 x10_2/uL
- LIVER (72 h, tissue Liver, time 3 day): 12.8 g
- A/G [1]: 2.2
- ALP [1]: 1454.2 IU/L
- ALT [1]: 31.8 IU/L
- AST [1]: 66.2 IU/L
- BUN [1]: 17.8 mg/dL
- CRE [1]: 0.4 mg/dL
- Ca [1]: 11.4 mg/dL
- Cl [1]: 104.6 meq/L
- DBIL [1]: 0.014 mg/dL
- GLC [1]: 169.2 mg/dL
- IP [1]: 6.6 mg/dL
- K [1]: 5 meq/L
- LDH [1]: 98.2 IU/L
- Na [1]: 137.8 meq/L
- PL [1]: 155.2 mg/dL
- RALB [1]: 3.8 g/dL
- TBIL [1]: 0.02 mg/dL
- TC [1]: 82 mg/dL
- TG [1]: 125 mg/dL
- TP [1]: 5.6 g/dL
- gamma-GTP [1]: 0.2 IU/L
- TERMINAL_BW ([…], time 7 day): 262.8 g
- TERMINAL_BW ([…], time 14 day): 327.9 g
- TERMINAL_BW ([…], time 28 day): 396.2 g
- APTT ([…], time 7 day): 16.6 s
- Bas ([…], time 7 day): 0%
- Eos ([…], time 7 day): 1.4%
- Fbg ([…], time 7 day): 263.8 mg/dL
- Hb ([…], time 7 day): 14.2 g/dL
- Ht ([…], time 7 day): 41.9%
- Lym ([…], time 7 day): 78.4%
- MCH ([…], time 7 day): 21.5 pg
- MCHC ([…], time 7 day): 33.9%
- MCV ([…], time 7 day): 63.4 fL
- Mono ([…], time 7 day): 6.4%
- Neu ([…], time 7 day): 14.6%
- PT ([…], time 7 day): 11.9 s
- Plat ([…], time 7 day): 128.6 x10_4/uL
- RBC ([…], time 7 day): 662.2 x10_4/ul
- Ret ([…], time 7 day): 6.1%
- WBC ([…], time 7 day): 126.8 x10_2/uL
- APTT ([…], time 14 day): 16.3 s
- Bas ([…], time 14 day): 0%
- Eos ([…], time 14 day): 0.8%
- Fbg ([…], time 14 day): 263.8 mg/dL
- Hb ([…], time 14 day): 14.3 g/dL
- Ht ([…], time 14 day): 42.2%
- Lym ([…], time 14 day): 74.8%
- MCH ([…], time 14 day): 21.6 pg
- MCHC ([…], time 14 day): 33.9%
- MCV ([…], time 14 day): 63.5 fL
- Mono ([…], time 14 day): 10.4%
- Neu ([…], time 14 day): 14.2%
- PT ([…], time 14 day): 12.2 s
- Plat ([…], time 14 day): 124 x10_4/uL
- RBC ([…], time 14 day): 665.2 x10_4/ul
- Ret ([…], time 14 day): 4.2%
- WBC ([…], time 14 day): 114.6 x10_2/uL
- APTT ([…], time 28 day): 16.4 s
- Bas ([…], time 28 day): 0%
- Eos ([…], time 28 day): 1%

Source: ChEMBL document CHEMBL3885861, “Open TG-GATES”
